Results taken from ChEMBL document CHEMBL1149961, “Design, synthesis, activity, and structure of a novel class of matrix metalloproteinase inhibitors containing a heterocyclic P2-P3 amide bond isostere” (Bioorg Med Chem Lett, 1996).

Legend:
Interstitial collagenase = target: T1, Interstitial collagenase (Homo sapiens, UniProt P03956); experiment: Inhibition of human fibroblast collagenase, matrix metalloprotease-1
T1 sequence (P03956 whole entry): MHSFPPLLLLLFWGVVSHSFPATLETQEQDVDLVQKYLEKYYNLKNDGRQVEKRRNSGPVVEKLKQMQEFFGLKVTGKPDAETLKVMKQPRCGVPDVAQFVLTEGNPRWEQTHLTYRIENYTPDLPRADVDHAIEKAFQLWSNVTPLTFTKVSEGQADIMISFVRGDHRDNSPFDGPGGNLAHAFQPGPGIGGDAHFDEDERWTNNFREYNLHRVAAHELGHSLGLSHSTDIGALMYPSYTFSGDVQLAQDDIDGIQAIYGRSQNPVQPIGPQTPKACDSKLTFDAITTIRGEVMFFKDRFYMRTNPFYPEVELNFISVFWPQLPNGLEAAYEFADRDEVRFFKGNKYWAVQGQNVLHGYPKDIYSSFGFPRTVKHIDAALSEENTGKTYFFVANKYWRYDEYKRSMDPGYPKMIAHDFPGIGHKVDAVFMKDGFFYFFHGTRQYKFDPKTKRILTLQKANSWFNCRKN

Matrilysin = target: T2, Matrilysin (Homo sapiens, UniProt P09237); experiment: Inhibition of matrilysin, matrix metalloprotease-7
T2 sequence (P09237 whole entry): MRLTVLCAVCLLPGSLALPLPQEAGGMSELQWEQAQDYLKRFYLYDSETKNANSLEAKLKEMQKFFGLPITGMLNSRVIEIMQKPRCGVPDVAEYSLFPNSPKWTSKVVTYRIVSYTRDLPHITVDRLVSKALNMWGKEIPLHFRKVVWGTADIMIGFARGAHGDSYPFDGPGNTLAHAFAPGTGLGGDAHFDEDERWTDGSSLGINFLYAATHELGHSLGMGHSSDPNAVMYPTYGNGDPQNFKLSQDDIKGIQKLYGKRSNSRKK

Stromelysin-1 = Stromelysin-1 (Homo sapiens, UniProt P08254); experiment: Inhibition of human fibroblast stromelysin, matrix metalloprotease-3
Sequence of Stromelysin-1 (P08254 whole entry): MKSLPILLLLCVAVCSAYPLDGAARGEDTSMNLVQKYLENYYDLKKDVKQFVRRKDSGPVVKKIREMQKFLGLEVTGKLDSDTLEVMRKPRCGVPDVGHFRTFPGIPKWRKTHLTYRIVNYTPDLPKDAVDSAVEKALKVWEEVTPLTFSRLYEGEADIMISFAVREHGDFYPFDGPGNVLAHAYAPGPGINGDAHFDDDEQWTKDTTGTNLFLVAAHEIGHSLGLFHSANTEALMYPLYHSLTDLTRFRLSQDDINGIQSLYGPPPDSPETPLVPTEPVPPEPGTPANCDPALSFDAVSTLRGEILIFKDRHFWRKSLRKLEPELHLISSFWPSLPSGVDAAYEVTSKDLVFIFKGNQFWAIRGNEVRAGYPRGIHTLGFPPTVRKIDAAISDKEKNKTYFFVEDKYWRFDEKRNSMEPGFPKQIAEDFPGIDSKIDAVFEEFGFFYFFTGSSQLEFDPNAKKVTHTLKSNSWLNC

In the case of CC(C)C[C@H](CC(=O)NO)C(=O)N[C@@H](CC(C)C)c1nc2ccccc2[nH]1, the IC50 (Interstitial collagenase) is reported as 29 nM, the IC50 (Matrilysin) is reported as 2 nM and the IC50 (Stromelysin-1) is reported as 8 nM.

CC(C)C[C@H](NC(=O)[C@@H](CC(=O)NO)C1CCCCC1)c1nc(-c2ccccc2)c[nH]1 gave an IC50 (Interstitial collagenase) of 480 nM, an IC50 (Matrilysin) of 3.1 nM and an IC50 (Stromelysin-1) of 5900 nM.

Compound CC(C)C[C@H](CC(=O)NO)C(=O)N[C@@H](Cc1c[nH]c2ccccc12)c1ncc[nH]1 has an IC50 (Interstitial collagenase) of 18 nM, an IC50 (Matrilysin) of 18 nM and an IC50 (Stromelysin-1) of 280 nM.

Compound COC(=O)c1[nH]c([C@H](CC(C)C)NC(=O)[C@@H](CC(=O)NO)CC(C)C)nc1-c1ccccc1 has an IC50 (Interstitial collagenase) of 3500 nM, an IC50 (Matrilysin) of 70 nM and an IC50 (Stromelysin-1) of 320 nM.

Compound CC(C)C[C@H](CC(=O)NO)C(=O)N[C@@H](CC(C)C)c1nc(-c2ccccc2)c[nH]1 has an IC50 (Interstitial collagenase) of 170 nM, an IC50 (Matrilysin) of 1 nM and an IC50 (Stromelysin-1) of 112 nM.

With CC(C)C[C@H](CC(=O)NO)C(=O)N[C@@H](CC(C)C)c1ncc[nH]1 the IC50 (Interstitial collagenase) was 9 nM, the IC50 (Matrilysin) was 50 nM and the IC50 (Stromelysin-1) was 320 nM.

CC(C)C[C@H](CC(=O)NO)C(=O)N[C@@H](CC(C)C)c1nc2cc(Cl)c(Cl)cc2[nH]1 showed an IC50 (Interstitial collagenase) of 40 nM, an IC50 (Matrilysin) of 33 nM and an IC50 (Stromelysin-1) of 68 nM.

COC(=O)c1ccc(NC(=O)[C@H](CC(C)C)NC(=O)[C@@H](CC(=O)NO)CC(C)C)cc1 showed an IC50 (Interstitial collagenase) of 6.9 nM, an IC50 (Matrilysin) of 0.23 nM and an IC50 (Stromelysin-1) of 0.8 nM.

CC(C)C[C@H](CC(=O)NO)C(=O)N[C@@H](CC(C)C)c1nc2cc(C(F)(F)F)ccc2[nH]1 showed an IC50 (Interstitial collagenase) of 7 nM, an IC50 (Matrilysin) of 10 nM and an IC50 (Stromelysin-1) of 20 nM.

In the case of COC(=O)c1ccc2nc([C@H](CC(C)C)NC(=O)[C@@H](CC(=O)NO)CC(C)C)[nH]c2c1, the IC50 (Interstitial collagenase) is reported as 3 nM, the IC50 (Matrilysin) is reported as 1 nM and the IC50 (Stromelysin-1) is reported as 5 nM.

For CC(C)C[C@H](CC(=O)NO)C(=O)N[C@@H](Cc1c[nH]c2ccccc12)c1nc2ccccc2[nH]1, the IC50 (Interstitial collagenase) was 22 nM, the IC50 (Matrilysin) was 10 nM and the IC50 (Stromelysin-1) was 29 nM.

For COc1ccc2nc([C@H](CC(C)C)NC(=O)[C@@H](CC(=O)NO)CC(C)C)[nH]c2c1, the IC50 (Interstitial collagenase) was 6 nM, the IC50 (Matrilysin) was 10 nM and the IC50 (Stromelysin-1) was 30 nM.
